Entries after “also recorded” stand apart in the source; their conditions may differ. One block for each molecule: values may come before it.
Experiments:
[1] = test system: PBMCs from Crohn's disease patients without Nod2 mutations; test: Cytokine response of PBMCs from Crohn's disease patients without Nod2 mutations; format: cell-based, human; details: PBMCs from non-Nod2 Crohn's disease patients; 50 nM; overnight (18 hours)
Experimental: (§1) FIG. 2. Response to muramyl peptides of PBMCs from healthy donors (CTR), Crohn's disease patients without defects in Nod2 (Crohn's) or Crohn's disease patients homozygous for the frameshift mutation (Nod2 fs). IL-1β, TNF and IL-10 were measured from the cell culture medium. Intracellular IL-1α was measured from cell lysates. All muramyl peptides (all 50 nM) were added directly to the cell culture medium for 18 hours.
as §1, with “3.” for “2.”, “peptidoglycans” for “muramyl peptides”, “(Nod2fs).” for “(Nod2 fs).”, “at 1 μg/ml) and LPS (100 ng/ml)” for “50 nM)”
(§2) FIG. 5. Analysis of the synergistic activation of PBMCs by M-TriDAP plus either LPS or LTA. PBMCs from healthy donors (CTR), Crohn's disease patients without defects in Nod2 (Crohn's) or Crohn's disease patients homozygous for the frameshift mutation (Nod2 fs) were analyzed. Cells were stimulated either with M-TriDAP (MTP(DAP) on the figure), LPS or LTA alone or in combination; LPS+M-TriDAP or LTA+M-TriDAP with the agonists added simultaneously, IL-1β, TNF and IL-10 were measured from the cell culture medium. Intracellular IL-1α was measured from cell lysates, LPS (40 pg/ml), LTA (5 μg/ml) and M-TriDAP (50 nM) were added directly to the cell culture medium for 18 hours.
(§3) The six muramyl peptides characterized above (MDP, M-TriLys, M-TetraLys, anhydro-M-TriLys, anhydro-M-TetraLys and M-TriDAP) were used to stimulate PBMCs obtained from human blood. PBMCs from three groups of individuals were collected: healthy donors (CTR), Crohn's disease patients without Nod2 mutations (Crohn) and Crohn's disease patients carrying homozygous Nod2fs frameshift mutation (Nod2fs). […] IL-1β, IL-10 and TNFα were measured in the supernatant, while intracellular IL-1α was measured from cell lysates (FIG. 2). […]

Nod2 = target: T1, Nod2 (Homo sapiens, UniProt Q9HC29); test: Nod2-dependent NF-κB luciferase reporter activation in transfected HEK293T cells; format: cell-based; details: for activation of Nod2 (NF-κB-driven luciferase reporter): muramyl peptides 10 nM up to 250 nM, HEK293T cells expressing Nod2, 24 h
T1 construct: expressed in transfected cells; host or cells: HEK293T
Experimental: FIG. 1. Detection of MDP-derived muramyl peptides by Nod2. A, schematic representation of the muramyl peptides used in this study. B, Human HEK293 epithelial cells were transfected with several muramyl peptides (MDP, M-TriLys, Anh-M-TriLys, M-TetraLYS and Anh-M-TetraLYS) at the following concentrations: 10 nM (white bars), 50 nM (grey bars) or 250 nM (black bars) in the presence of an expression vector for Nod2 . The activity of a NF-κB-driven luciferase reporter gene was measured, and Nod2-dependent activation of the reporter gene in the presence of muramyl peptides was reported to the one obtained without stimulation with muramyl peptides. […] Experiments were performed three times with similar results.
In search for MDP-derived muramyl peptides that could stimulate the Nod2 signaling pathway, the inventors generated several molecules differing in the length of their peptidic moiety, including M-TriLys and M-TetraLys (FIG. 1A). These molecules were then tested for their ability to activate Nod2 using co-transfection assays in HEK293T epithelial cells and measuring NF-κB activity as a read-out (FIG. 1B). […] Here, a larger range of muramyl peptide concentration was used (10 nM up to 250 nM) to allow for the identification of even weak inducers of the Nod2 pathway.
HEK293T cells were cultured in DMEM containing 10% fetal calf serum. Prior to transfection, HEK293T cells were seeded into 24 well plates at a density of 1×10^5 cells/ml as described previously (26), MDP LD was from Calbiochem and reported to be 98% pure by TLC.
The expression plasmid for Nod2 has been previously described (27). The NF-κB luciferase reporter plasmid was from Stratagene. Transfections were carried out in […] cells as previously described (26).
Studies examining the synergistic activation of NF-κB by muramyl peptides in cells over expressing Nod2 were carried out as originally described by Inohara et al. (28). Briefly, HEK293T cells were transfected overnight with 10 ng of Nod2 plus 75 ng of NF-κB luciferase reporter plasmid. At the same time, muramyl peptides were added to cell culture medium and the synergistic NF-κB-dependent luciferase activation was then measured following 24 h of co-incubation. NF-κB-dependent luciferase assays were performed in duplicate and data represent at least 3 independent experiments.

[2] = test system: PBMCs from healthy donors; test: Cytokine response of PBMCs from healthy donors (CTR); format: cell-based, human; details: 50 nM, overnight (18 hours)
Experimental: as §1
as §1, with “3.” for “2.”, “peptidoglycans” for “muramyl peptides”, “(Nod2fs).” for “(Nod2 fs).”, “at 1 μg/ml) and LPS (100 ng/ml)” for “50 nM)”
as §2, §3

[3] = test system: PBMCs from Nod2fs patients; test: Cytokine response of PBMCs from Crohn's disease patients homozygous for the Nod2fs frameshift mutation; format: cell-based, human; details: 50 nM, overnight (18 hours)
Experimental: as §1
as §1, with “3.” for “2.”, “peptidoglycans” for “muramyl peptides”, “(Nod2fs).” for “(Nod2 fs).”, “at 1 μg/ml) and LPS (100 ng/ml)” for “50 nM)”
as §2, §3

T1 sequence (Q9HC29 whole entry): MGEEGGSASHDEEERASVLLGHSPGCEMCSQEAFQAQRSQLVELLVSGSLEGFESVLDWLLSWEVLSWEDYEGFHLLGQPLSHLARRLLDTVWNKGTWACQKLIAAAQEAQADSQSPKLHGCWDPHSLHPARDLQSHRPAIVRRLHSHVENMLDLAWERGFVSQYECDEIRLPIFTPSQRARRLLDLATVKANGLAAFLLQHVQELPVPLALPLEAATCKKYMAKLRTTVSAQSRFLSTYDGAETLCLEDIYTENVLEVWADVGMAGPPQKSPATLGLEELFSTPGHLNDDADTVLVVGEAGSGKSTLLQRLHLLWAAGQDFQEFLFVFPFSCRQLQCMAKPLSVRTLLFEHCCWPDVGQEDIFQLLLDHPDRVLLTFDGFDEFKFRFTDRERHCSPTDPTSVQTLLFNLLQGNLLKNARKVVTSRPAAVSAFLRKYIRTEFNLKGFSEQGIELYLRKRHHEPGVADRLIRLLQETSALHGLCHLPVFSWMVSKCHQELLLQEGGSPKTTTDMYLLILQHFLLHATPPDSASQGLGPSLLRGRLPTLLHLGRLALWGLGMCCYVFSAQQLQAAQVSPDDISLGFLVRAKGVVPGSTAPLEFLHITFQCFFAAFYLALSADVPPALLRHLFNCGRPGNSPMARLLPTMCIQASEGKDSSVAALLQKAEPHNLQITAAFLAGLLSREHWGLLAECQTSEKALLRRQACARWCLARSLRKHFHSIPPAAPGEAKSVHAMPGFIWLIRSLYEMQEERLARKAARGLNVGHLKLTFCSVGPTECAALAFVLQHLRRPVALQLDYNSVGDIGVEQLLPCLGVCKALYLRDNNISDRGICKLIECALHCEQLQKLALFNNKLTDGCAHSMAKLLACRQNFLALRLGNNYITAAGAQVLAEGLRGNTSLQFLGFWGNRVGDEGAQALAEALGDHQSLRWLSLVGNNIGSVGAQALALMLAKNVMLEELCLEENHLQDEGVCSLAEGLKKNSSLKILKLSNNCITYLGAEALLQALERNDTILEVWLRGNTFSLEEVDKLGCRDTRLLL

Molecule: CC(=O)N[C@H]1C(O)O[C@H](CO)[C@@H](O)[C@@H]1O[C@H](C)C(=O)N[C@@H](C)C(=O)N[C@H](CCC(=O)O)C(N)=O (mixture of isomers) [MDP, muramyl dipeptide]
cytokine response (IL-1β, IL-10, TNFα, intracellular IL-1α) to muramyl peptides [1]: still reacted
concentration at which activation of Nod2 was maximal (Nod2; HEK293T co-transfection, NF-κB read-out, 10 pmoles per milliliter of culture medium): 10 nM
activation of Nod2 (NF-κB-driven luciferase reporter) (Nod2): activated Nod2 with similar efficiency
cytokine response (IL-1β, IL-10, TNFα, intracellular IL-1α) to muramyl peptides [2]: potent activators
cytokine response (IL-1β, IL-10, TNFα, intracellular IL-1α) to muramyl peptides [3]: not stimulated

activation of Nod2 (NF-κB-driven luciferase reporter) (Nod2): activated Nod2 with similar efficiency
Molecule: M-TriLys
cytokine response (IL-1β, IL-10, TNFα, intracellular IL-1α) to muramyl peptides [1]: still reacted
cytokine response (IL-1β, IL-10, TNFα, intracellular IL-1α) to muramyl peptides [2]: potent activators
cytokine response (IL-1β, IL-10, TNFα, intracellular IL-1α) to muramyl peptides [3]: not stimulated

Molecule: diaminopimelic acid (DAP)-containing muramyl tripeptide [M-TriDAP]
cytokine response (IL-1β, IL-10, TNFα, intracellular IL-1α) to muramyl peptides [1]: efficiently stimulated; also recorded: globally as potent as MDP
activation of Nod2 (NF-κB-driven luciferase reporter) (Nod2): failed to activate Nod2
cytokine response (IL-1β, IL-10, TNFα, intracellular IL-1α) to muramyl peptides [2]: efficiently stimulated; also recorded: globally as potent as MDP
cytokine response (IL-1β, IL-10, TNFα, intracellular IL-1α) to muramyl peptides [3]: failed to induce cytokine response; also recorded: unable to stimulate

From US20060251659A1, “Method for screening molecules that restore NOD1 activity in cells containing an NOD2 mutation that reduces or eliminates NOD1 activity” (priority 2005, published 2006)
